The text below walks through data of ChEMBL document CHEMBL5370584, “Reprogramming Energy Metabolism with Synthesized PDK Inhibitors Based on Dichloroacetate Derivatives and Targeted Delivery Systems for Enhanced Cancer Therapy” (J Med Chem, 2023).

The structures appear in SMILES notation. Calls of active or inactive are those of the source. No cut-off for these calls is given here.

The test system of data set [1] is Prostate cell. Kind of data set: Antiproliferative activity against human prostate cell assessed as inhibition of cell viability measured after 72 hrs by MTT assay. It is filed as functional, cell-based.
Data set [2] concerns the target [Pyruvate dehydrogenase (acetyl-transferring)] kinase isozyme 4, mitochondrial (Mus musculus) (UniProt O70571). Kind of data set: Inhibition of PDK4 transcription in mouse 4T1 cells at 4 uM incubated for 24 hrs by qPCR analysis. It is filed as cell-based.
The subject of data set [3] is MOLM-13. Kind of data set: Antiproliferative activity against human MOLM-13 cells assessed as inhibition of cell growth incubated for 24 hrs by MTT assay. It is filed as functional, cell-based. The following applies: MOLM-13, 24 h.
Data set [4] concerns the target [Pyruvate dehydrogenase (acetyl-transferring)] kinase isozyme 2, mitochondrial (Mus musculus) (UniProt Q9JK42). Kind of data set: Inhibition of PDK2 transcription in mouse 4T1 cells at 4 uM incubated for 24 hrs by qPCR analysis. It is filed as cell-based.
The subject of data set [5] is HeLa. Kind of data set: Antiproliferative activity against human HeLa cells assessed as inhibition of cell growth incubated for 24 hrs by MTT assay. It is filed as functional, cell-based.
For data set [6], the system named is 4T1. Kind of data set: Inhibition of glycolysis in mouse 4T1 cell lysates assessed as reduction in extracellular acidification rate at 2 uM measured after 6 hrs. It counts as functional, cell-based.
Data set [7] deals with NB-4. Kind of data set: Antiproliferative activity against human NB4 cells assessed as inhibition of cell growth incubated for 24 hrs by MTT assay. The note with it: NB-4, 24 h. It is filed as functional, cell-based.
Data set [8] is described as follows: (§1) Antiproliferative activity against African green monkey COS7 cells assessed as inhibition of cell growth incubated for 24 hrs by MTT assay. It counts as toxicity, cell-based, Chlorocebus aethiops, COS-7. The note with it: African green monkey (Chlorocebus aethiops), COS-7 cells.
Data set [9] has as its system 4T1. Kind of data set: Inhibition of PDK4 expression in mouse 4T1 cells at 4 uM incubated for 24 hrs by Western blot analysis. It counts as functional, cell-based.
Data set [10] concerns 4T1. Kind of data set: Antiproliferative activity against mouse 4T1 cells assessed as inhibition of cell growth incubated for 24 hrs by MTT assay. It is filed as functional, cell-based. The following applies: 4T1, 24 h.
In data set [11] the target is [Pyruvate dehydrogenase (acetyl-transferring)] kinase isozyme 3, mitochondrial (Mus musculus) (UniProt Q922H2). Kind of data set: Inhibition of PDK3 transcription in mouse 4T1 cells at 4 uM incubated for 24 hrs by qPCR analysis. It is filed as cell-based.
Sequence of [Pyruvate dehydrogenase (acetyl-transferring)] kinase isozyme 3, mitochondrial (Mus musculus) (Q922H2 whole entry): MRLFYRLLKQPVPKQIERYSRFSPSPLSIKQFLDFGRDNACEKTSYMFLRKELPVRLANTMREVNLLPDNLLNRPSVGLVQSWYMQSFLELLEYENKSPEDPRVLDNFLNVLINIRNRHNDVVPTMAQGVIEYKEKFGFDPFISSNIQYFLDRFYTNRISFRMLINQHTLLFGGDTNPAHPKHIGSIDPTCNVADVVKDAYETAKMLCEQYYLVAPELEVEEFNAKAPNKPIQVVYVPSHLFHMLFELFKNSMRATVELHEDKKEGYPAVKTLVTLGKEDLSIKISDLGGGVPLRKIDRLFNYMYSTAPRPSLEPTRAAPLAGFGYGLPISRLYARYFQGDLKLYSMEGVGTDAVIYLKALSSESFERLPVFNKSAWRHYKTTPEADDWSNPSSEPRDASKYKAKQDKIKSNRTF
Data set [12] addresses [Pyruvate dehydrogenase (acetyl-transferring)] kinase isozyme 1, mitochondrial (Mus musculus) (UniProt Q8BFP9). Kind of data set: Inhibition of PDK1 transcription in mouse 4T1 cells at 4 uM incubated for 24 hrs by qPCR analysis. It counts as cell-based.
For data set [13], the system named is 4T1. Kind of data set: Inhibition of PDK1 expression in mouse 4T1 cells at 4 uM incubated for 24 hrs by Western blot analysis. It counts as functional, cell-based.
Data set [14] has as its target [Pyruvate dehydrogenase (acetyl-transferring)] kinase isozyme 1, mitochondrial (Homo sapiens, UniProt Q15118). Kind of data set: Inhibition of PDK1 (unknown origin) incubated for 30 mins in presence of ATP by kinase glo luminescent kinase assay.
In data set [15] the test system is MCF7. Kind of data set: Antiproliferative activity against human MCF7 cells assessed as inhibition of cell growth incubated for 24 hrs by MTT assay. It is filed as functional, cell-based. The following applies: MCF7, 24 h.
The subject of data set [16] is Breast cancer cell line. Kind of data set: Antiproliferative activity against human Breast cancer cell line assessed as inhibition of cell viability measured after 72 hrs by MTT assay. It is filed as functional, cell-based.
Data set [17] in a line: Inhibition of PDK (unknown origin) incubated for 10 mins in presence of ATP. The arrangement: species or system Homo sapiens.
Data set [18] in a line: Inhibition of PDK (unknown origin). The arrangement: species or system Homo sapiens.
In data set [19] the test system is COS-7. The description is as §1. It is filed as toxicity, cell-based, Chlorocebus aethiops. The note with it: cos-7.
In data set [20] the test system is 4T1. Kind of data set: Inhibition of glycolysis in mouse 4T1 cell lysates assessed as reduction in extracellular acidification rate at 20 mM measured after 6 hrs. It counts as functional, cell-based.

Sequence of [Pyruvate dehydrogenase (acetyl-transferring)] kinase isozyme 1, mitochondrial (Q15118 whole entry): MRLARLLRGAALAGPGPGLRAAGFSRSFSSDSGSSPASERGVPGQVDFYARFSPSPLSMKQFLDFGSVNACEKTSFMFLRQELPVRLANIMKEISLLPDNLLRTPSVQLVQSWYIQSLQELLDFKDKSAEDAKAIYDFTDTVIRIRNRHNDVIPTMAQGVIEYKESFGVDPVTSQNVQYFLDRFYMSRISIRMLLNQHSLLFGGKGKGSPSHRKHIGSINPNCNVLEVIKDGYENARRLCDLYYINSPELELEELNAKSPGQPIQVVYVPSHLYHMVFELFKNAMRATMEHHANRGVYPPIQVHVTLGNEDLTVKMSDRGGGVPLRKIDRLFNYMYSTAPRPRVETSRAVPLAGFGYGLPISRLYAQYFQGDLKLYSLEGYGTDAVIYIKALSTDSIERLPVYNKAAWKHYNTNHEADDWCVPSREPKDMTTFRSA
Sequence of [Pyruvate dehydrogenase (acetyl-transferring)] kinase isozyme 1, mitochondrial (Mus musculus) (Q8BFP9 whole entry): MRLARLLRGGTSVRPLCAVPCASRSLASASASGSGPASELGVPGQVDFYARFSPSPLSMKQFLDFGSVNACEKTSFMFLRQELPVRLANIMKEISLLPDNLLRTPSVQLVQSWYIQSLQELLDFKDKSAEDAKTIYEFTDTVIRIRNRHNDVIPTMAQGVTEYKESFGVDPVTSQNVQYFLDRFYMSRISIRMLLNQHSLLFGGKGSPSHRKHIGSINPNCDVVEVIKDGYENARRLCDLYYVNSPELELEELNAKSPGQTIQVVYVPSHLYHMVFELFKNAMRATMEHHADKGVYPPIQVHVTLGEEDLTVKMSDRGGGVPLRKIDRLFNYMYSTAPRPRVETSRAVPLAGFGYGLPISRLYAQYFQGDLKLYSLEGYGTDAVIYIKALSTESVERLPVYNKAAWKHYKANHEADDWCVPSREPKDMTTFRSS
Sequence of [Pyruvate dehydrogenase (acetyl-transferring)] kinase isozyme 4, mitochondrial (Mus musculus) (O70571 whole entry): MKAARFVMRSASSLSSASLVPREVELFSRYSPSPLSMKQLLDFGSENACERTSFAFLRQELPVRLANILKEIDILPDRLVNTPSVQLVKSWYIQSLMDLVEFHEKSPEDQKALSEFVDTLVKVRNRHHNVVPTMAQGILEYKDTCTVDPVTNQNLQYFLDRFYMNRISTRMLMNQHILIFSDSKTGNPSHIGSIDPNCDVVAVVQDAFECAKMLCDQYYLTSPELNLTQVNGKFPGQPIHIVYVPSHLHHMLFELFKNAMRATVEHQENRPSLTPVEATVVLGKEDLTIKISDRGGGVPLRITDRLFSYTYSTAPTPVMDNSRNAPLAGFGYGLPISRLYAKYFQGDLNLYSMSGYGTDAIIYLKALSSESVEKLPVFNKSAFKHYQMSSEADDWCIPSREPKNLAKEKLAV

Turning to `O=C(CCCCC[P+](c1ccccc1)(c1ccccc1)c1ccccc1)NC(COC(=O)C(Cl)Cl)(COC(=O)C(Cl)Cl)COC(=O)C(Cl)Cl`, the IC50 in [1] turned out to be 17 µM.
Consider `O=C(Nc1ccc([As]2SCCCS2)cc1)C(Cl)Cl`, for which the inhibition entry in data set [2], in data set [4], in data set [6], in data set [9], in [11] and in data set [12] was “inactive” each time. The inhibition entry in data set [13] is “inactive”. Besides, the IC50 in [3] is 0.91 µM; in data set [5], 0.69 µM; in data set [7], 0.96 µM; in data set [10], 0.98 µM; in [15], 1.79 µM. For the same molecule, the IC50 at 24 h in data set [8] was 3.74 µM. The EC50 in [14] was determined as 4.7 µM.
`O=C(CCNC(=O)C(Cl)Cl)Nc1ccc([As]2SCCCS2)cc1`: the IC50 worked out at 1.34 µM in data set [3]; 3.15 µM in data set [5]; 1.22 µM in [7]; 2.68 µM in data set [10]; 3.2 µM in data set [15]. In addition, the IC50 at 24 h in data set [8] was 6.27 µM. In addition, in data set [14], the EC50 came to 1.9 µM.
As for `O=C(CCCCNC(=O)C(Cl)Cl)Nc1ccccc1[As]1SCCCS1`, the IC50 was 1.77 µM in data set [3]; 4.72 µM in data set [5]; 1.7 µM in [7]; 3.7 µM in data set [10]; 5.32 µM in data set [15]. Besides, in data set [8], the IC50 at 24 h is 5.58 µM. For the same molecule, in data set [14], the EC50 stood at 0.65 µM.
As to `O=C(CCCNC(=O)C(Cl)Cl)Nc1ccccc1[As]1SCCCS1`, the IC50 in data set [3] is 1.97 µM; in data set [5], 3.34 µM; in [7], 2.1 µM; in data set [10], 332 µM; in [15] it was 2.85 µM. Also, in data set [8], the IC50 at 24 h was determined as 6.06 µM. Further, the EC50 in [14] was 2.9 µM.
Turning to `CC1(C)CC[C@]2(C(=O)O)CC[C@]3(C)C(=CC[C@@H]4[C@@]5(C)CC[C@H](O[C@@H]6O[C@H](CO[C@@H]7OC[C@H](O)[C@H](O)[C@H]7O)[C@@H](O)[C@H](O)[C@H]6NC(=O)C(Cl)Cl)C(C)(C)[C@@H]5CC[C@]43C)[C@@H]2C1`, the IC50 in [16] was determined as 0.43 µM.
Regarding `O=C([O-])C(Cl)Cl.[Na+]` [SODIUM DICHLOROACETATE], in data set [17], the concentration giving a half-maximal response (EC50) is 180 µM.
As to `O=S(=O)(c1ccc(O)cc1O)N1Cc2cc(O)cc(O)c2C1`, in data set [17], the EC50 was 0.8 µM.
As to `O=C(CCCCCCCNC(=O)C(Cl)Cl)Nc1ccc([As]2SCCCS2)cc1`, the IC50 in [3] is 1.24 µM; in data set [5] it was 1.89 µM; in data set [7], 1.09 µM; in data set [10], 1.73 µM; in [15] it was 1.9 µM. For the same molecule, in [8], the IC50 at 24 h worked out at 9.62 µM. The EC50 in data set [14] came out at 0.62 µM.
`CC(C)c1ccc(COc2ccc(CC(=O)NCCN)cc2Cl)cc1` registered an EC50 in [18] of 2 µM.
On to `O=C(CCCCCNC(=O)C(Cl)Cl)Nc1ccccc1[As]1SCCCS1`, for which the IC50 in data set [3] is 1.61 µM; in [5], 3.75 µM; in data set [7], 1.98 µM; in [10] it was 2.12 µM; in data set [15] it was 2.11 µM. For the same molecule, the IC50 at 24 h in [8] was 6.13 µM. Further, the EC50 in data set [14] came to 3.2 µM.
As to `O=C(CCCNC(=O)C(Cl)Cl)Nc1ccc([As]2SCCCS2)cc1`, the IC50 in data set [3] came out at 1.34 µM; in [5], 3.52 µM; in [7], 1.25 µM; in data set [10], 2.8 µM; in [15] it was 6.74 µM. In data set [8], the IC50 at 24 h amounted to 6.12 µM. For the same molecule, the EC50 in data set [14] stood at 1 µM.
For `O=C(CCNC(=O)C(Cl)Cl)Nc1ccccc1[As]1SCCCS1`, the IC50 was determined as 1.68 µM in data set [3]; 2.54 µM in [5]; 1.61 µM in data set [7]; 3.23 µM in data set [10]; 3.56 µM in data set [15]. Also, the IC50 at 24 h in data set [8] stood at 5.23 µM. Moreover, in data set [14], the EC50 was determined as 2.6 µM.
As for `COc1ccc(-c2c(-c3ccc(O)cc3O)n[nH]c2C)cc1`, the EC50 in [17] was 648 µM.
In the case of `O=C(CCCCNC(=O)C(Cl)Cl)Nc1ccc([As]2SCCCS2)cc1`, the IC50 in data set [3] was 1.22 µM; in [5] it was 3.22 µM; in data set [7] it was 1.35 µM; in data set [10] it was 2.77 µM; in [15] it was 9.31 µM. For the same molecule, the IC50 at 24 h in [8] came to 4.6 µM. Moreover, in [14], the EC50 was determined as 0.93 µM.
As to `O=C(CCCCCCNC(=O)C(Cl)Cl)Nc1ccccc1[As]1SCCCS1`, the IC50 in data set [3] stood at 1.98 µM; in data set [5], 1.95 µM; in data set [7] it was 1.63 µM; in [10], 2.65 µM; in data set [15], 2.94 µM. Further, the IC50 at 24 h in data set [8] is 8.07 µM. Also, in data set [14], the EC50 was 1.2 µM.
For `O=C(O)C(Cl)Cl` [DICHLOROACETIC ACID], the IC50 was determined as 22000 µM in data set [3]; 25000 µM in data set [5]; 20000 µM in data set [7]; 40000 µM in [19]; 30000 µM in data set [10]; 35000 µM in [15].
On to `O=C(CCCCCCCCCCCNC(=O)C(Cl)Cl)Nc1ccc([As]2SCCCS2)cc1`, for which the IC50 in [3] stood at 0.8 µM; in data set [5], 0.94 µM; in data set [7], 0.71 µM; in [10] it was 1.4 µM; in [15], 1.53 µM. For the same molecule, the half-maximal inhibitory concentration (IC50) at 24 h in data set [8] amounted to 1.15 µM. Moreover, the EC50 in [14] stood at 1.3 µM.
In the case of `O=C(CCCCCCCNC(=O)C(Cl)Cl)Nc1ccccc1[As]1SCCCS1`, the IC50 in data set [3] is 2.88 µM; in data set [5], 2.09 µM; in [7], 1.73 µM; in data set [10] it was 2.98 µM; in data set [15], 2.82 µM. In addition, the IC50 at 24 h in [8] came to 4.8 µM. In [14], the EC50 amounted to 1.9 µM.
On to `O=C(CCCCCCCCCCCNC(=O)C(Cl)Cl)Nc1ccccc1[As]1SCCCS1`, for which the IC50 came to 1.35 µM in data set [3]; 1.65 µM in [5]; 0.92 µM in data set [7]; 2.98 µM in data set [10]; 1.82 µM in [15]. Besides, the IC50 at 24 h in data set [8] turned out to be 3 µM. In addition, the EC50 in data set [14] turned out to be 1.6 µM.
Turning to `C[C@@H]1C[C@H]2O[C@@H]2/C=C\C=C\C(=O)Cc2c(Cl)c(O)cc(O)c2C(=O)O1` [RADICICOL], the EC50 in data set [17] was found to be 1100 µM.
In the case of `O=C(CCCCCCNC(=O)C(Cl)Cl)Nc1ccc([As]2SCCCS2)cc1`, the IC50 was 1.29 µM in data set [3]; 2.5 µM in data set [5]; 1.16 µM in data set [7]; 2.1 µM in [10]; 1.94 µM in data set [15]. For the same molecule, the IC50 at 24 h in data set [8] came to 9.66 µM. The EC50 in [14] worked out at 0.19 µM.
`C[C@@H]1CN(C(=O)[C@@](C)(O)C(F)(F)F)[C@@H](C)CN1C(=O)c1ccc(C#N)cc1` showed an EC50 in [18] of 0.016 µM.
As for `CN(C)C(=O)c1ccc(S(=O)(=O)c2ccc(NC(=O)[C@@](C)(O)C(F)(F)F)c(Cl)c2)cc1`, the EC50 in [17] stood at 0.087 µM.
For the molecule `O=C(Nc1ccccc1[As]1SCCCS1)C(Cl)Cl`, the IC50 in [3] is 0.48 µM; in [5] it was 0.27 µM; in data set [7], 0.52 µM; in [10], 1.1 µM; in data set [15], 0.77 µM. Moreover, the IC50 at 24 h in data set [8] amounted to 1.87 µM. Further, in data set [14], the EC50 came to 9.6 µM.
With `O=C(O)C(Cl)Cl`, the inhibition entry in [20] was “inactive”.
